In US20240189318A1, “THERAPEUTIC REGIMENS OF AN INHIBITOR OF THE ENZYMATIC ACTIVITY OF BRG1 AND BRM” (FOGHORN THERAPEUTICS INC., priority 2021, published 2024):
Like-named read-outs stand apart in the source and are kept apart here.

Experiments:
CYP2C9 = CYP2C9 (Homo sapiens, UniProt P11712); assay: Depletion by recombinant CYP enzyme, CYP2C9; assay type: in vitro ADME; set-up: from tissue; host or cells: pooled human liver microsomes; conditions: recombinant 2C9
CYP3A4 mRNA = assay: CYP mRNA level (qRT-PCR) in cultured human hepatocytes, CYP3A4; assay type: in vitro ADME; conditions: 72 hours
92-1 cells = assay: 3-day cell proliferation assay (CellTiter-Glo); conditions: Homo sapiens, 72 h, read-out: mean IC50, cell proliferation
CYP3A4/5 = assay: CYP enzyme inhibition in pooled human liver microsomes, CYP3A4/5; conditions: for inhibition at 10 µM / inhibition at 30 µM: Enzyme activity (% inhibition), CYP3A4/5
CYP2C19 mRNA = assay: CYP mRNA level in cultured human hepatocytes, CYP2C19; assay type: in vitro ADME; conditions: tested concentrations up to 50 nM
BRM = BRM (Homo sapiens, UniProt P51531); assay: biochemical
CHD4 enzyme = CHD4 enzyme (Homo sapiens, UniProt Q14839); assay: ADP-Glo ATPase assay, CHD4; assay type: biochemical; conditions: concentrations up to 200 μM (n=3)
BCRP = biological target: T1, BCRP (Homo sapiens, UniProt Q9UNQ0); assay: Transporter inhibition in MDCK-II cells, BCRP; assay type: in vitro ADME; conditions: for IC50: probe prazosin 2 μM
T1 construct: expressed in transfected cells; host or cells: MDCK-II
T1 sequence (Q9UNQ0 1-655): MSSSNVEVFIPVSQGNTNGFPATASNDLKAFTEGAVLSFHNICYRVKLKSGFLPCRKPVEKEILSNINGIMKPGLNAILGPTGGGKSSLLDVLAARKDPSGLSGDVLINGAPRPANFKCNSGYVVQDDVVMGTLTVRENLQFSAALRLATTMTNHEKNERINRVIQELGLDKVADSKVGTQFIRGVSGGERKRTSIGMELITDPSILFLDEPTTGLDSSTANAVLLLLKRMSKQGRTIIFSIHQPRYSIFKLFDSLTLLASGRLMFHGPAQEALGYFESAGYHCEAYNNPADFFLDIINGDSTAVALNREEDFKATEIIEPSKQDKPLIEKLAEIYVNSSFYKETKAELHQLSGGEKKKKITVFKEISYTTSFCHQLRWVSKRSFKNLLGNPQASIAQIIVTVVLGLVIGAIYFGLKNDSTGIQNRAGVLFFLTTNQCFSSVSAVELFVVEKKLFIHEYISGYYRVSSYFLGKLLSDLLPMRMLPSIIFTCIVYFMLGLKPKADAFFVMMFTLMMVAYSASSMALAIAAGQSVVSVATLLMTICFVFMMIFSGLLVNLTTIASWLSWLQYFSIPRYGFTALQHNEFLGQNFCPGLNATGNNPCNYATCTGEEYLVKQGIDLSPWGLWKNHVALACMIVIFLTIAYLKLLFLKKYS

2C19 = biological target: T2, 2C19 (Homo sapiens, UniProt P33261); assay: Selective chemical inhibition of compound of formula (I) depletion in human liver microsomes, CYP2C19; assay type: in vitro ADME; conditions: reaction phenotyping
T2 construct: from tissue; host or cells: human liver microsomes

MDCK control cells = assay: Bidirectional transport in MDCK control cells (passive permeability); assay type: in vitro ADME; conditions: MDCK control cells
[1] = as above; assay type: in vitro ADME; conditions: dog; for Papp B→A at 1 μM / Papp B→A at 50 μM / Papp A→B at 1 μM / Papp A→B at 10 μM / Papp B→A at 10 μM / Papp A→B at 50 μM: MDCK; for Papp A→B at 10 μM / Papp B→A at 10 μM: 10 μM compound of formula (I)
3A4/5 = assay: Selective chemical inhibition of compound of formula (I) depletion in human liver microsomes, CYP3A4/5; conditions: reaction phenotyping
[2] = human, pooled human liver microsomes, probe midazolam (1′-hydroxylation), 30 Minutes Pre-incubation with NADPH, probe Midazolam, PHLM
[3] = human, pooled human liver microsomes, probe midazolam (1′-hydroxylation), 30 Minutes Pre-incubation without NADPH, probe Midazolam, PHLM
[4] = human, pooled human liver microsomes, probe midazolam (1′-hydroxylation), No Pre-incubation, probe Midazolam, PHLM
[5] = human, pooled human liver microsomes, probe testosterone (6β-hydroxylation), 30 Minutes Pre-incubation with NADPH, probe Testosterone, PHLM
[6] = human, pooled human liver microsomes, probe testosterone (6β-hydroxylation), 30 Minutes Pre-incubation without NADPH, probe Testosterone, PHLM
[7] = human, pooled human liver microsomes, probe testosterone (6β-hydroxylation), No Pre-incubation, probe Testosterone, PHLM
[8] = BCRP assay, 50 μM compound of formula (I)
[9] = P-gp assay, 1 μM compound of formula (I)

Chain of CYP2C9 (P11712 whole entry): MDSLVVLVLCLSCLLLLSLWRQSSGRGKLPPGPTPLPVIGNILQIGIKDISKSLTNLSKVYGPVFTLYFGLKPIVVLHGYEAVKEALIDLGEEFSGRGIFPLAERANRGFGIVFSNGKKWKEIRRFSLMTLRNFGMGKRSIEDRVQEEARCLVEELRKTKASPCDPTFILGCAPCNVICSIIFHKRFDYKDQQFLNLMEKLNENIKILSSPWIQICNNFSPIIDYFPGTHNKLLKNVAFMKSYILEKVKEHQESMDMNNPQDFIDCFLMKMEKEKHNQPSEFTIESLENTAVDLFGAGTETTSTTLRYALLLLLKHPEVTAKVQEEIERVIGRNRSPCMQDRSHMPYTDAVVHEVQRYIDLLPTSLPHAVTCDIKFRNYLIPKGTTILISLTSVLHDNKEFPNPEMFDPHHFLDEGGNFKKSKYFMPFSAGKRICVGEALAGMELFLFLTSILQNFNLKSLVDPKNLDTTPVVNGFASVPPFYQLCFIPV
Chain of BRM (P51531 whole entry): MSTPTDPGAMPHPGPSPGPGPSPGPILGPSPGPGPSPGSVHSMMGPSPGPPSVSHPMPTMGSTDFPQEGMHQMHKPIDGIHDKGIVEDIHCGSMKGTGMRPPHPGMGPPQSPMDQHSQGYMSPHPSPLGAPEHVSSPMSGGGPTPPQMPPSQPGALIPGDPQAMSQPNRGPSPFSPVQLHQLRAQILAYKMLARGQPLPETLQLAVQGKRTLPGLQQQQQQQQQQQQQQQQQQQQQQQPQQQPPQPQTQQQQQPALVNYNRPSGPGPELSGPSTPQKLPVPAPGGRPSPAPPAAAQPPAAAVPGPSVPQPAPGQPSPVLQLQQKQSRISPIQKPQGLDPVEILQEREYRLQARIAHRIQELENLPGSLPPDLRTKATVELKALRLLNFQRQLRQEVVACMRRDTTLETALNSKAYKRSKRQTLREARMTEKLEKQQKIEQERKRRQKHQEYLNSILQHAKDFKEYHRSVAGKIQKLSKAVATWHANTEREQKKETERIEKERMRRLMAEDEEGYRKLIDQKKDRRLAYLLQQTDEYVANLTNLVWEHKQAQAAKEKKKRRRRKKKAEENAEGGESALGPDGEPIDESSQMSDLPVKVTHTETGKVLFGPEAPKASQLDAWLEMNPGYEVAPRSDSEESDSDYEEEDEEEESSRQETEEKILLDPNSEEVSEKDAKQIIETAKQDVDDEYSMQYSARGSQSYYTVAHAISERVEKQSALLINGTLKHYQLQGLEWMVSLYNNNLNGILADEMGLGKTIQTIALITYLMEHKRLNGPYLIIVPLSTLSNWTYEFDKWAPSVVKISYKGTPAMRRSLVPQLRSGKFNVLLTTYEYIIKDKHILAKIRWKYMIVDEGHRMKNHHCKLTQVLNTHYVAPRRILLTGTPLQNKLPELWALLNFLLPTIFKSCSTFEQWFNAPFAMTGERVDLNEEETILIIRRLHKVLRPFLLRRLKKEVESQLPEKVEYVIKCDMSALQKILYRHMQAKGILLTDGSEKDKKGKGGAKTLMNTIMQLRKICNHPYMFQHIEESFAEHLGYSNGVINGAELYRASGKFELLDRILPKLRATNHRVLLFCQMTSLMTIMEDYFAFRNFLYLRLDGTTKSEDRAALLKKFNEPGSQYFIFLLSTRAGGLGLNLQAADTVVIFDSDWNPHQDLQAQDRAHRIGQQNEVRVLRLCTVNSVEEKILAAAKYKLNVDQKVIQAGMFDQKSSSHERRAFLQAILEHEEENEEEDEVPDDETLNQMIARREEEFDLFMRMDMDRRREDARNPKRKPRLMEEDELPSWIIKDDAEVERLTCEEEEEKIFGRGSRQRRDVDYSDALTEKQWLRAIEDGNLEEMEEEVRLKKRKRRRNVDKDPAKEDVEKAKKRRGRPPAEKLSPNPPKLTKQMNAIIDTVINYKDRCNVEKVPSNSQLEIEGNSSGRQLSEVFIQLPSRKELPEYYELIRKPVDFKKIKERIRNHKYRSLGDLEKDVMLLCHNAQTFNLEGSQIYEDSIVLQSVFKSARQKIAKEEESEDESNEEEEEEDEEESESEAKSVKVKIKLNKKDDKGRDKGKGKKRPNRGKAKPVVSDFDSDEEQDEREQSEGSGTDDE
Chain of CHD4 enzyme (Q14839 whole entry, species assumed): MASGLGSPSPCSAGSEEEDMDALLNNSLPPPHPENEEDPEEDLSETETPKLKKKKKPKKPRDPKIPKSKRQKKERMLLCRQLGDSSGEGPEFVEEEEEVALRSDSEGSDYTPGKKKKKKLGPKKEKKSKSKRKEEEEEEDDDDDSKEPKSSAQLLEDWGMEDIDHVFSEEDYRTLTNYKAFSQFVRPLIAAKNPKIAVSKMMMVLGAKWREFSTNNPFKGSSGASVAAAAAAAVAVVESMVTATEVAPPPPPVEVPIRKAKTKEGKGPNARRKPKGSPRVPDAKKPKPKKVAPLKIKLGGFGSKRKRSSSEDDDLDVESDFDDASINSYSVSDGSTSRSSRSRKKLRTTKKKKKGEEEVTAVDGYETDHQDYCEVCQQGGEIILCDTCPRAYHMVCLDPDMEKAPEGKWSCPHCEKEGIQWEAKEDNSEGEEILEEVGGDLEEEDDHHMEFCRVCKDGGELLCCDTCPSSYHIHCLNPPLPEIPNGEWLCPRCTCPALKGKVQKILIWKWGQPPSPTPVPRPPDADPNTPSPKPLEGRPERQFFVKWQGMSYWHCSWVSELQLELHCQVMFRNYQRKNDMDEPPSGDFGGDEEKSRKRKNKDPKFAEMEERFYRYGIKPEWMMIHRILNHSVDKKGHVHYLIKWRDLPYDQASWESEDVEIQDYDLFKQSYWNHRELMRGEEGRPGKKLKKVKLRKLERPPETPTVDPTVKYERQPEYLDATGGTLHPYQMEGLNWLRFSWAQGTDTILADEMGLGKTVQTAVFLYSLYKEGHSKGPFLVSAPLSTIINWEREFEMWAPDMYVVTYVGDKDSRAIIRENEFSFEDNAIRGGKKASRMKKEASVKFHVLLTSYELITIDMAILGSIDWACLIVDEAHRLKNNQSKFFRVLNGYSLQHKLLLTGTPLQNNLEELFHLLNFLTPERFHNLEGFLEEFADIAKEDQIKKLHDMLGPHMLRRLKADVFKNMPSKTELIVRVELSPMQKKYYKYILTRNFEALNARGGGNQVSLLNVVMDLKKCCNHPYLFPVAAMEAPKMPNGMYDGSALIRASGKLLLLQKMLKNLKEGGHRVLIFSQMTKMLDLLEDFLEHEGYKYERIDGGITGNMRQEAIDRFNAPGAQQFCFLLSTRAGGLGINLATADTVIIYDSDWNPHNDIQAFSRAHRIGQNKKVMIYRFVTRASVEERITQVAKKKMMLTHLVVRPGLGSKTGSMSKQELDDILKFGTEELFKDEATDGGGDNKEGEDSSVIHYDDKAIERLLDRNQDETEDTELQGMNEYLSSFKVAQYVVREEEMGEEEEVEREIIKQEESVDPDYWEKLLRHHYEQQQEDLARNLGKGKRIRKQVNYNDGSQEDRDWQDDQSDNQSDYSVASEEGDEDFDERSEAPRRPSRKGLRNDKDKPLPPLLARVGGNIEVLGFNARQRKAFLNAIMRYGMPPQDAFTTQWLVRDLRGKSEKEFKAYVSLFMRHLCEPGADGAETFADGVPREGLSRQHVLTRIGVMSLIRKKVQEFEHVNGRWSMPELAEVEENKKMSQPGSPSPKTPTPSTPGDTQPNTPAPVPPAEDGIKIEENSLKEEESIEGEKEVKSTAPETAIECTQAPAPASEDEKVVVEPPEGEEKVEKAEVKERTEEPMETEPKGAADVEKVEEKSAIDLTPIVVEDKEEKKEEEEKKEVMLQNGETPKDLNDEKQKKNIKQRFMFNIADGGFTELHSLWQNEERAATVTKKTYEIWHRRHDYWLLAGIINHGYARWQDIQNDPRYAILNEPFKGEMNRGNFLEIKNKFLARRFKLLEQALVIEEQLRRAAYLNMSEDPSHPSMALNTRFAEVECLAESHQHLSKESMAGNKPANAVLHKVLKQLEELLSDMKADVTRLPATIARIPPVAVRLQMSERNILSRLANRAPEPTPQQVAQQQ
T2 sequence (P33261 whole entry): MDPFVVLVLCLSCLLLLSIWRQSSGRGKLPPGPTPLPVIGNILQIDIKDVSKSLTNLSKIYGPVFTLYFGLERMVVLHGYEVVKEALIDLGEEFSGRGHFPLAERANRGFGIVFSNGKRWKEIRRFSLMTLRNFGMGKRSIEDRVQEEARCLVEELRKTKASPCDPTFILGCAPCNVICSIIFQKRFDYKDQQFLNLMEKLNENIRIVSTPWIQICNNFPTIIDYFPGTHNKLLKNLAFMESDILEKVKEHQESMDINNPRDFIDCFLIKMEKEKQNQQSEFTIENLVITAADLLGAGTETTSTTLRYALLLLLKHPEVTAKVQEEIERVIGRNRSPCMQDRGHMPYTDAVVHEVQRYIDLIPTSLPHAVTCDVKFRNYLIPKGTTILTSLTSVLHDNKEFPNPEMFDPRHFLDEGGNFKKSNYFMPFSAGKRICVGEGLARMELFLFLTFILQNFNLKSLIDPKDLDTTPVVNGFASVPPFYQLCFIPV

In the case of `COC[C@H](NC(=O)c1ccn(S(C)(=O)=O)c1)C(=O)Nc1nc(-c2cccc(N3C[C@@H](C)O[C@@H](C)C3)n2)cs1` [compound of formula (I), N-((S)-1-((4-(6-(cis-2,6-dimethylmorpholino)pyridin-2-yl)thiazol-2-yl)amino)-3-methoxy-1-oxopropan-2-yl)-1-(methylsulfonyl)-1H-pyrrole-3-carboxamide], the “% Remaining of Compound of Formula (I)” value (CYP2C9; 0.1 μM) is reported as 79.9%, the “% Remaining of Compound of Formula (I)” value (CYP2C9; 1 μM) is reported as 100% and the “concentrations at which CYP3A4 mRNA expression was down-regulated (>50% decrease)” value (CYP3A4 mRNA) is reported as no less than 1 nM. For the same compound, the IC50 (92-1 cells) was 1.13 nM, the “time-dependent inhibition of CYP3A4/5” value (CYP3A4/5; PHLM) was “weak time-dependent inhibitor” and the “direct inhibitory activity (% inhibition) toward CYP3A” value (CYP3A4/5; PHLM, concentrations up to 30 μM) was less than 50%. The IC50 (CYP3A4/5; human, pooled human liver microsomes) was greater than 30000 nM, the inhibition at 30 min, 10 µM (CYP3A4/5; human, pooled human liver microsomes, increase in CYP3A4/5 inhibition by preincubation, concentrations of ≤10 μM) was less than 20% and the inhibition at 10 µM (CYP3A4/5; [2]) was 25.3%. The inhibition at 30 µM (CYP3A4/5; [2]) was 40.2%, the inhibition at 10 µM (CYP3A4/5; [3]) was 6.5% and the inhibition at 30 µM (CYP3A4/5; [3]) was -1%. For the same compound, the inhibition at 10 µM (CYP3A4/5; [4]) was 18.2%, the inhibition at 30 µM (CYP3A4/5; [4]) was 13.6% and the inhibition at 10 µM (CYP3A4/5; [5]) was 27.4%. The inhibition at 30 µM (CYP3A4/5; [5]) was 49.3%, the inhibition at 10 µM (CYP3A4/5; [6]) was 10.5% and the inhibition at 30 µM (CYP3A4/5; [6]) was 20.8%. For the same compound, the inhibition at 10 µM (CYP3A4/5; [7]) was 9.7%, the inhibition at 30 µM (CYP3A4/5; [7]) was 18.4% and the “effect on mRNA expression of CYP2C19” value (CYP2C19 mRNA) was “minimal effect”. For the same compound, the IC50 (BRM) was 4.5 nM, the “inhibition of the ATPase activity of the CHD4 enzyme” value (CHD4 enzyme) was “did not inhibit” and the IC50 (BCRP; BCRP in MDCK-II cells, read-out: Estimated IC50 using nominal concentrations) was 10100 nM. The IC50 (BCRP; BCRP, corrected, read-out: IC50 corrected for non-specific binding) was 2380 nM, the “R-value for BCRP inhibition in the gut” value (BCRP; FDA guidance 2020, human dose of 300 mg) was greater than 10 and the “role of CYP2C19 in metabolism in human liver microsomes” value (2C19) was “possible involvement of CYP2C19 to a lesser extent”. The passive permeability (MDCK control cells) was “high passive permeability”, the Papp B→A at 1 μM [1] was 18.2 ×10⁻⁶ cm/s and the Papp B→A at 50 μM [1] was 18.5 ×10⁻⁶ cm/s. It also gave a Papp A→B at 1 μM ([1]; BCRP assay, 1 μM compound of formula (I)) of 26 ×10⁻⁶ cm/s, a Papp A→B at 10 μM ([1]; BCRP assay) of 25.4 ×10⁻⁶ cm/s and a Papp B→A at 10 μM ([1]; BCRP assay) of 20.9 ×10⁻⁶ cm/s. It also gave a Papp A→B at 50 μM [1, 8] of 21.3 ×10⁻⁶ cm/s, a Papp B→A at 50 μM [1, 8] of 19.2 ×10⁻⁶ cm/s and a Papp A→B at 1 μM [1, 9] of 28.8 ×10⁻⁶ cm/s. It also gave a Papp B→A at 1 μM [1, 9] of 21 ×10⁻⁶ cm/s, a Papp A→B at 10 μM ([1]; P-gp assay) of 31 ×10⁻⁶ cm/s and a Papp B→A at 10 μM ([1]; P-gp assay) of 23.6 ×10⁻⁶ cm/s. For the same compound, the Papp A→B at 50 μM ([1]; P-gp assay, 50 μM compound of formula (I)) was 25.5 ×10⁻⁶ cm/s, the Papp ([1]; MDCK control cells, read-out: apparent permeability coefficient (Papp) (B→A) or Papp (A→B)) was no less than 15 ×10⁻⁶ cm/s and the “role of CYP3A in metabolism in human liver microsomes” value (3A4/5) was “major CYP enzyme responsible”.
